Test results taken from patent publication EP0305184A1, “Pyrimidines or their pharmaceutically acceptable salts thereof” (MITSUI PHARMACEUTICALS, INC., priority 1987, dated 1989).
Where “and” joins values, the source holds several entries; their conditions need not be identical. Identical values can stand only once. Like-named read-outs stand apart in the source and are kept apart here.

Legend:
[1] = test system: mice with nerve disorder induced by mercury poisoning; assay: T-shaped maze learning and memory of mice with mercury poisoning; type: in vivo, Male BalbC strain mice; conditions: 102 69.5, 116 76.9 mg/kg.ip/day; for running time: mean ± SE, after MMC; for Number of mice which ran to the safety area within 5 seconds: numerator: at least 8 of ten runs within 5 seconds, denominator: mice tested, after MMC 6 mg/kg/day
Procedure: Male BalbC strain mice, 7 weeks old, were first caused to learn a T-shaped maze three times in a week so that they run straight from a starting point to a safety area. Then, methylmercury chloride (MMC for short) was administered orally in a dose of 6 mg/kg/day for 6 days. A group of mice to which saline was administered in a dose of 0.1 ml/10 g/day was used as a control group. Beginning with the day next to the day of administering MMC, compounds Nos. 102 and 116 were intraperitoneally administered over 10 days in a dose of 69.5 mg/kg/day and 76.9 mg/kg/day, respectively, so as to make the mole numbers of the compounds equal. On the sixth day after administration of the drug (namely, on the 12th day after start of the experiment), learning of the T-shaped maze was resumed, and the running behaviors of the mice were observed. The number of mice which could be experimented in the T-shaped maze on the 10th and 11th days after the resumption (21st and 22nd days after the start of the experiment) was counted and expressed as a denominator. The number of mice which ran to the safety area within 5 seconds at least 8 times out of ten trial runnings was counted and expressed as a numerator. The decrease in the number of the test animals was due to death by MMC poisoning. The time (seconds) required for the animals to run to the safety area was measured, and the mean ± standard error (SE) was calculated.

mouse = assay: Acute toxicity; type: in vivo; conditions: p.o., 24 hours after administration
Procedure: (§1) The acute toxicity of the compounds of the invention was examined by the following method.
(§2) Male ddy-strain 5-week old mice and male Wistar-strain 8 week old rats, five per group, were used as experimental animals. Each of the compounds was dissolved in saline and administered perorally (p.o.) or intraperitoneally (i.p.), and the toxicity of the compound was assessed 24 hours after the administration.

Acute toxicity = type: in vivo; conditions: in vivo, mouse, 24 hours after administration
Procedure: as §1, §2

[2] = test system: rats having the lesioned nigral dopaminergic nerve cells; assay: Methamphetamine-induced rotational movement after 6-hydroxydopamine lesion and fetal dopamine cell transplantation; type: in vivo, female Wistar rats
Procedure: Nigral dopaminergic nerve cells at the left side of the brain of 4-week old female Wistar rats (body weight 100 g) were lesioned by injecting a very small quantity of 6-hydroxydopamine. […] Upon administration of methamphethamine (5 mg/kg, i.p.) to the rats having the lesioned nigral dopaminergic nerve cells, they began rotational movement toward the lesioned side.
After two weeks from the destruction by the administration of the drug, portions of the truncus corporis callosi containing dopamine cells (i. e., substantia nigra and the tagmentum at the abdomen side) were cut from the brain of a fetal rat of 14 to 17 days of age, cut finely, and treated with trypsin. Then, the extracted tissues were incubated at 37°C for 30 minutes, and the tissues were subjected to pipetting to form a suspension. Five microliters of the suspension was transplanted each into two sites of the caudate nucleus of the lesioned side (10 microliters in total, about 10⁵ cells).
Each of the compounds (I) in a dose of 100 mg/kg (i.p.) was administered every day over two weeks from the day of transplantation. The rotational movements induced by administration of methamphetamine were examined 2 weeks and 1 week before, and 2 weeks and 4 weeks after, the transplantation and the administration of the drug. The number of rotational movements within one minute was counted at intervals of 10 minutes after the administration of methamphetamine, and the total number of rotational movements counted six times was averaged to find a mean number of the rotational movements.

[3] = test system: rats with crushed sciatic nerves; assay: Curative effect on rats with crushed sciatic nerves; type: in vivo, male Wistar rats; conditions: i.p. once a day, Compound 118 30 mg/kg, Mecobalamin 0.5 mg/kg, mean ± S.E.; for Rate of recovery in muscle weight (%): soleus muscle, crushed side/normal side
Procedure: The curing effect of the compound (I) of the invention was tested on rats having crushed sciatic nerves as a model of peripheral nervous disorder using (1) a change in the action of the hind paw with the crushed sciatic nerves and (2) a change in the weight of the muscle as an index of the course of degeneration and regeneration of peripheral nerves.
In the experiment, male Wistar rats (6 weeks old), seven per group, were used. The sciatic nerves were crushed by a method similar to the method of Yamatsu et al. (see Kiyomi Yamatsu, Takenori Kaneko, Akifumi Kitahara and Isao Ohkawa, Journal of Japanese Pharmacological Society, 72, 259-268 (1976) and the method of Hasegawa et al. (see Kazuo Hasegawa, Naoji Mikuni and Yutaka Sakai, Journal of Japanese Pharmacological Society, 74 721-734 (1978). Specifically, under anesthesia with pentobarbital (40 mg/kg, i.p.), the left side sciatic nerve was exposed at the femur and that site of the exposed sciatic nerve which was 5 mm to the center from the branched part between the N. tibialis and the N. suralis was crushed using a modified artery, klomme, having a width of 2 mm and a gap of 0.1 mm. After the operation, the rats were assigned to the test groups at random.
Compound No. 118 was selected as the compound (I) of the invention and intraperitoneally administered to the rats once a day from the day of operation to the 22nd day. A group to which mecobalamin (made by Gedeon Richter Ltd.) was administered and a group to which 0.9 % saline was administered were used as controls. The following items were measured with the lapse of time (on the lst, 4th, 7th, 10th, 14th, 17th, 21st, and 23rd days after the crushing of the sciatic nerves).
By a method similar to the method of Hasegawa [Hasegawa, K., Experientia, 34, 750-751 (1978)], the distance between the first and fifth digits of the hind paw was measured.
The ratio of the measured distance to the normal distance was calculated and expressed in percentage (%).
It is known that the removal of a nerve or its disorder causes atrophy of the muscle which is under its control, and the atrophy is gradually cured by re-control by the nerve. For this reason, a change in the weight of the muscle, which is quantitative, was selected as an index. Twenty-three days after the operation, the soleus muscles of both sides of paws were extracted under anesthesia with pentobarbital, and their weights were measured. The ratio of the weight of the soleus muscle on the crushed side to that of normal side was calculated and expressed in percentage (%).

[4] = po, p.o., read-out: Estimated LD₅₀ (mg/kg, p.o.)
[5] = ip, i.p., read-out: Estimated LD₅₀ (mg/kg, i.p.)

## CC(C)Nc1ncc2c(n1)N(C)C(=O)C2.Cl [Compound 102, 2-iso-Propylamino-5,6-dihydro-7-methyl-6-oxo(7H)pyrrolo[2,3-d]pyrimidine hydrochloride]
[1]; 10th day after resumption
  running time: 2.1 ± 0.2 s
  Number of mice which ran to the safety area within 5 seconds: 6/6
[1]; 11th day after resumption
  running time: 3.0 ± 0.6 s
  Number of mice which ran to the safety area within 5 seconds: 6/6
mouse; Dose 1000 mg/kg
  Number of dead animals/number of animals tested: 0/5
Acute toxicity; [4]
  LD50 at 24 h: > 1000 mg/kg

## CC(C)Nc1ncc2c(n1)N(C)C(=O)C2.O=C(O)/C=C\C(=O)O [Compound 104, 2-iso-Propylamino-5,6-dihydro-7-methyl-6-oxo(7H)pyrrolo[2,3-d]pyrimidine maleate]
[2]; 2W after transplantation, 100 mg/kg (i.p.) every day over two weeks, maleate, 100 mg/kg
  Number of rotational movements of rats and average values thereof (mean ±S.D.): 2.0±3.2 and 3.1±3.8
[2]; -1W (before transplantation and drug administration, baseline), maleate
  Number of rotational movements of rats and average values thereof (mean ±S.D.): 10.8±3.8 and 10.4±5.2
[2]; -2W (before transplantation and drug administration, baseline), maleate
  Number of rotational movements of rats and average values thereof (mean ±S.D.): 12.3±3.7 and 10.1±6.1

## CN(C)c1ncc2c(n1)N(C)C(=O)C2 [Compound 108]
mouse; Dose 1000 mg/kg
  Number of dead animals/number of animals tested: 2/5
Acute toxicity; [4]
  LD50 at 24 h: > 1000 mg/kg

## CN1C(=O)Cc2cnc(N3CCCC3)nc21 [Compound 112]
mouse; Dose 1000 mg/kg
  Number of dead animals/number of animals tested: 0/5
Acute toxicity; [4]
  LD50 at 24 h: > 1000 mg/kg

## CN1C(=O)Cc2cnc(N3CCCCC3)nc21 [Compound 118]
[2]; 2W after transplantation, 100 mg/kg (i.p.) every day over two weeks
  Number of rotational movements of rats and average values thereof (mean ±S.D.): 1.9±3.2
[2]; -1W (before transplantation and drug administration, baseline)
  Number of rotational movements of rats and average values thereof (mean ±S.D.): 13.9±7.4 and 10.8±4.9
[2]; -2W (before transplantation and drug administration, baseline)
  Number of rotational movements of rats and average values thereof (mean ±S.D.): 9.1±5.6
[2]; column headed 3W, footnote: * Data at 2 W, 100 mg/kg (i.p.) every day over two weeks
  Number of rotational movements of rats and average values thereof (mean ±S.D.): *5.5±7.2
mouse; Dose 1000 mg/kg
  Number of dead animals/number of animals tested: 0/5
Acute toxicity; [5]
  LD50 at 24 h: 500 to 1000 mg/kg
Acute toxicity; [4]
  LD50 at 24 h: > 1000 mg/kg
[3]; 21st day
  Rate of recovery of the interdigit distance (%): 79.8±2.5 %
[3]; 23rd day
  Rate of recovery of the interdigit distance (%): 87.9±3.3 %
  Rate of recovery in muscle weight (%): 59.6±2.8 %

## CN1C(=O)Cc2cnc(N3CCOCC3)nc21 [Compound 122]
mouse; Dose 1000 mg/kg
  Number of dead animals/number of animals tested: 1/5
Acute toxicity; [4]
  LD50 at 24 h: > 1000 mg/kg

## CN1C(=O)Cc2cnc(N3CCSCC3)nc21 [Compound 126]
mouse; Dose 1000 mg/kg
  Number of dead animals/number of animals tested: 0/5
Acute toxicity; [4]
  LD50 at 24 h: > 1000 mg/kg

## CCN(CC)C(=O)N1CCN(c2ncc3c(n2)N(C)C(=O)C3)CC1 [Compound 132, 2-Diethylaminocarbonylpiperazino-5,6-dihydro-7-methyl-oxo(7H)pyrrolo[2,3-d]pyrimidine]
mouse; Dose 1000 mg/kg
  Number of dead animals/number of animals tested: 1/5
Acute toxicity; [4]
  LD50 at 24 h: > 1000 mg/kg

## CN1CCN(c2ncc3c(n2)N(C)C(=O)C3)CC1 [Compound 138]
mouse; Dose 1000 mg/kg
  Number of dead animals/number of animals tested: 0/5
Acute toxicity; [5]
  LD50 at 24 h: 250 to 500 mg/kg
Acute toxicity; [4]
  LD50 at 24 h: > 1000 mg/kg

## CC1CCN(c2ncc3c(n2)N(C)C(=O)C3)CC1 [Compound 175]
Acute toxicity; [5]
  LD50 at 24 h: 500 to 1000 mg/kg

## CN1Cc2nc(N3CCCC3)ncc2C1=O [Compound 216]
mouse; Dose 550 mg/kg
  Number of dead animals/number of animals tested: 0/5
Acute toxicity; [4]
  LD50 at 24 h: > 550 mg/kg

## CN1Cc2nc(N3CCCCC3)ncc2C1=O [Compound 218]
mouse; Dose 550 mg/kg
  Number of dead animals/number of animals tested: 0/5
Acute toxicity; [4]
  LD50 at 24 h: > 550 mg/kg

## C/C1=C2/[N-][C@H]([C@H](CC(N)=O)[C@@]2(C)CCC(=O)NC[C@@H](C)OP(=O)([O-])O[C@H]2[C@@H](O)[C@@H](n3cnc4cc(C)c(C)cc43)O[C@@H]2CO)[C@]2(C)N=C(/C(C)=C3N=C(/C=C4N=C1[C@@H](CCC(N)=O)C\4(C)C)[C@@H](CCC(N)=O)[C@]\3(C)CC(N)=O)[C@@H](CCC(N)=O)[C@]2(C)CC(N)=O.[CH3-].[Co+3] [Mecobalamin, reference compound]
[3]; 21st day
  Rate of recovery of the interdigit distance (%): 79.1±2.6 %
[3]; 23rd day
  Rate of recovery of the interdigit distance (%): 88.3±4.0 %
  Rate of recovery in muscle weight (%): 55.0±3.5%
